Tests used:
[1] = test system: lipase; test: Inhibition of lipase by PMSF (rate of hydrolysis of S-acyl substrate, DTNB colorimetry); type: biochemical; details: substrate BLME; 0 - 2.0 mM of PMSF
Description: (§1) To test tubes I and II are added (c) (1 ml) and a test sample (10 - 1,500 BALB unit of lipase or about 10 μl of human serum), and further to the test tube I is added (b) (20 μl; the concentration of PMSF: about 0.4 mM) and the mixture is allowed to stand at room temperature for 5 minutes to inactivate the existing serum caboxylesterase and/or arylesterase.
(§2) To the test tube I is further added a substrate (a) (0.1 ml). The test tubes I and II are kept for 30 minutes at 38° C, and immediately to the test tube II is added the substrate (a) (0.1 ml) and to these test tubes I and II is added acetone (d) (2 ml) to stop the reaction. […] The optical density of the supernatant of the tube I is measured at 412 nm in a cuvette of 1 cm light path (OD412 ^1 cm ) against that of the tube II. […]
(§3) In the same manner as described in Example 2, lipase of 1,100 BALB unit, carboxylesterase of 450 BALB unit or arylesterase of 60 BALB unit is treated (substrate: BALB), wherein the concentration of PMSF is varied, and then the rate of hydrolysis of BALB (relative activity) is measured.
In the same manner as described in Example 3, lipase of 1,100 MPB unit, carboxylesterase of 140 MPB unit or arylesterase of 68 MPB unit is treated (substrate: MPB), wherein the concentration of PMSF is varied, and then the rate of hydrolysis of MPB (relative activity) is measured. […]

[2] = Storage / heat stability of reagent solutions in alcohol; type: physicochemical; details: heated at 120° C for 30 minutes
From the text: According to the present method, the measurement of lipase activity can be easily carried out by using so small amount of sample as 1/10 to 1/100 of that in the known methods described hereinbefore and within a shorter time. Moreover, the substrate becomes micellar merely by mixing and shaking with a buffer solution without addition of an emulsifier or vigorous stirring, and further, the solution of the substrate in an alcohol is stable at room temperature for more than 6 months.
The enzyme inhibitor (e.g. PMSF) is preferably preserved in the form of an alcoholic solution (e.g. ethanolic solution). PMSF in an alcohol solution is stable even if it is heated at 120° C for 30 minutes, but if the solution is mixed with the substrate (I), (II), (III) or (IV) in an alcohol, PMSF undergoes chemical reaction with the substrate to lose its action as an esterase-inhibitor, and therefore, both of the solutions must be preserved separately.

[3] = test system: arylesterase; test: Inhibition of arylesterase by PMSF (rate of hydrolysis of S-acyl substrate, DTNB colorimetry); type: biochemical
Description: as §1, §2, §3
(§4) In the same manner as described in Example 3, lipase of 1,100 MPB unit, carboxylesterase of 140 MPB unit or arylesterase of 68 MPB unit is treated (substrate: MPB), wherein the concentration of PMSF is varied, and then the rate of hydrolysis of MPB (relative activity) is measured.

[4] = test system: carboxylesterase; test: Inhibition of carboxylesterase by PMSF (rate of hydrolysis of S-acyl substrate, DTNB colorimetry); type: biochemical
Description: as §1
(§5) To the test tube I is further added a substrate (a) (0.1 ml). The test tubes I and II are kept for 30 minutes at 38° C, and immediately to the test tube II is added the substrate (a) (0.1 ml) and to these test tubes I and II is added acetone (d) (2 ml) to stop the reaction. After mixed well, the tubes I and II were centrifuged (700 × g, for 10 minutes) to remove insoluble serum proteins and turbidity due to serum lipids and the substrate. The optical density of the supernatant of the tube I is measured at 412 nm in a cuvette of 1 cm light path (OD412 ^1 cm ) against that of the tube II.
Besides, test tube III is treated in the same manner as test tube I except that the enzyme inhibitor (b) is omitted.
In the same manner as described in Example 2, the determination of lipase activity is carried out except that the substrate (a' ) is used instead of (a).
as §3, §4
In the same manner as described in Example 9, the determination of lipase activity is carried out by using BLME as the substrate. […]

[5] = target: T1, Purified hog pancreatic lipase (type IV, Sigma) (Sus scrofa, UniProt P00591); test: Hydrolysis of S-acyl substrates by purified hog pancreatic lipase, DTNB colorimetry at 412 nm, no PMSF; type: biochemical; details: for Relative activity (%): relative activity of BLME for lipase expressed as 100, 10 μl lipase solution
T1 construct: purchased Sigma Chemical Co. type IV; host or cells: hog pancreas
T1 sequence (P00591 1-450): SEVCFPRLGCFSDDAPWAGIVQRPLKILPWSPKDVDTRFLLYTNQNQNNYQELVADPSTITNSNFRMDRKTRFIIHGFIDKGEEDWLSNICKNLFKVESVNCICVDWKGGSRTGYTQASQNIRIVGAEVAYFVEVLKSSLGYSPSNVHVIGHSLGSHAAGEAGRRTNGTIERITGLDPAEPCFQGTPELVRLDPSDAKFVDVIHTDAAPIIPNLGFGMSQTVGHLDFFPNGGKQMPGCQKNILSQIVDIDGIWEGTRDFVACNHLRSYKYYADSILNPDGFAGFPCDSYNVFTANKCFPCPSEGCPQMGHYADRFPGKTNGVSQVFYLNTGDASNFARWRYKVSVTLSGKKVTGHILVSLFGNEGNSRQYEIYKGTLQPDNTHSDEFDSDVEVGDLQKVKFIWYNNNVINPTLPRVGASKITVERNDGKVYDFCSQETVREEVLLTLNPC
Description: The determination of lipase activity by the present invention is carried out based on the following principle. That is, a solution of the substrate [an S-acyl compound of the formula (I), (II), (III) or (IV)] in an alcohol is added to the reaction buffer solution containing the sample with lipase and a chromogenic sulfhydryl reagent which reacts with a SH-group-containing compound [hereinafter, referred to as "SH-compound" ] released from the substrate by lipase. The amount of the released SH-compound or the intensity of the colored reaction mixture is proportional to the lipase activity in the sample, and therefore, the lipase activity can be determined by subjecting the resulting colored reaction mixture to colorimetric readings. As a sulfhydryl reagent, 5,5'-dithiobis(2-nitrobenzoic acid) [hereinafter, referred to as "DTNB" ] is used. In case of the measurement of lipase activity by using the S-acyl compound (I) (X is O) and DTNB, it is assumed that the reaction will proceed as shown in the following scheme: [drawing 6]
as §1, §5
Purified hog pancreatic lipase (type IV, a product of Sigma Chemical Co.) is dissolved in 1 % human serum albumin solution to give a solution (10 μg/ml). The lipase activity in 10 μl of this solution (correspondingto 0.1 μ g of lipase) is determined in the same manner as described in Example 2 (substrate: BALB) in the absence of PMSF. The lipase activity measured is 800 BALB units.
One μmole of the released SH-group from the substrate gives 4.75 of OD412 ^1 cm under the conditions described in Example 11, and therefore 1 mg of the purified hog pancreatic lipase is calculated to hydrolyze the S-acyl group of the BALB to give a free SH-group at the rate of 1,670 μmoles/30 minutes.
The same lipase solution (10 μl) as prepared in Example 11 is treated in the same manner as described in Example 2 by using various S-acyl compounds as the substrate in the absence of PMSF. The relative activity of the S-acyl compounds are measured. The results are shown in Table 4, wherein the relative activity of BLME for lipase is expressed as 100.

O=S(=O)(F)Cc1ccccc1 [PMSF, phenylmethylsulfonyl fluoride]
Inhibition of the lipase activity [1]: negligible
stability of alcohol solution on heating [2]: stable
50 % inhibitory concentration for arylesterase as fraction of that for lipase ([3]; substrate BALB): 1/300
50 % inhibitory concentration for arylesterase as fraction of that for lipase ([3]; substrate MPB): 1/400
50 % inhibitory concentration for carboxylesterase as fraction of that for lipase ([4]; substrate BALB): about 1/100
carboxylesterase activity inhibited ([4]; substrate BLME, 0.2 mM or more of PMSF): ≥ 90%
50 % inhibitory concentration for carboxylesterase as fraction of that for lipase ([4]; substrate MPB): about 1/200

CCCCCCCCCCCC(=O)OCCSC(=O)CCC [BLME, S-butyroyl-O-lauroylmercaptoethanol]
Relative activity (%) ([5]; absence of PMSF): 100%

CCCC(=O)OC(CSC(=O)CCC)CSC(=O)CCC [2-butyroyloxy-1,3-bisbutyroylthiopropane]
relative activity as fraction of the relative activity of BALB ([5]; absence of PMSF): less than 1/10

CCCC(=O)OC(CSC(=O)CCC)CSC(=O)CCC [drawing 28]
Relative activity (%) ([5]; absence of PMSF): 35%

CCCC(=O)OCC(CSC(=O)CCC)SC(=O)CCC (stereo not shown) [BALB]
lipase activity measured, OD412 (I-II) x 1,000 ([5]; 0.1 μg hog pancreatic lipase, 30 minutes at 38° C, absence of PMSF): 800 BALB units
activity for lipase (in words) ([5]; absence of PMSF): extremely high activity
rate of hydrolysis of the S-acyl group to free SH-group by 1 mg of lipase ([5]; per 1 mg purified hog pancreatic lipase, calculated from 4.75 OD412 per μmole SH): 1,670 μmoles/30 minutes

Reference: patent US3986930A, “Lipase activity determining method and reagent” (Dainippon Pharmaceutical Co., Ltd., priority 1974, dated 1976)
